Results published in patent publication US12351834B2, “Compositions and methods for the treatment of ornithine transcarbamylase deficiency” (Arcturus Therapeutics, Inc., priority 2020, dated 2025).
Like-named read-outs stand apart in the source and are kept apart here.

How the values were obtained:
[1] = In vivo tissue lipid clearance in Balb/c mice; design: species or system mouse; conditions: for Tmax / half-life / concentration at 28 days: Balb/c, mouse; for ranking of lipid level by tissue / time post-dose by which lipid no longer detected in plasma: single IV bolus 1 mg/kg of the lipid formulation; for concentration at 28 days: 28 days post-dose
Description: Additional studies were conducted to evaluate the in vivo tissue clearance profile of Lipid #7 and Lipid #3 in Balb/c mice. The clearance profiles in mouse tissue and plasma can be found in FIG. 25 (for Lipid #7) and FIG. 26 (for Lipid #3). All animals received a single intravenous bolus treatment of 1 mg/kg of the Lipid #7 formulation at a dosing volume of 10 mL/kg. Plasma, liver, kidney, and spleen were collected from mice (n=3 mice per timepoint) at 0, 2, 15, 30 minutes; 1, 2, 4, 6, 8, 12, 24, 48 hours; and 5, 7, 21, 28 days post-dose. All samples were analyzed for Lipid #7 concentrations.
All animals received a single intravenous bolus treatment of 1 mg/kg of the Lipid #3 formulation at a dosing volume of 10 mL/kg. Plasma was collected from mice (n=3 per timepoint) at 0.25, 1, 2, 4, 6, 12, 24, 120, and 168 hours post-dose. Liver, kidney, and spleen were collected from mice (n=3 per timepoint) at 0.033, 0.25, 1, 2, 4, 6, 12, 24, 120, and 168 hours; 1, 2, 3, 4-weeks post-dose. Heart, brain and lungs were collected from mice (n=3 per timepoint) at 0.25 hours; 1, 2-weeks post-dose. Only samples from 0.25 hrs to 1-week post-dose were analyzed for Lipid #3 tissue concentrations.

Spf/ash mice [2] = experiment: Urinary orotate levels in Spf/ash mice; type: in vivo, mouse; conditions: 1 mg/kg and 3 mg/kg IV
Description: Spf/ash mice received an IV injection with either PBS or lipid-formulated OTC-mRNA construct 1799.7 (5MeOU chemistry) at three different doses: 0.3 mg/kg, 1 mg/kg and 3 mg/kg. Urinary orotate levels were determined in untreated wild-type (WT) and both untreated and treated Spf/ash mice. A urinary orotate time course was performed in Spf/ash and WT mice, and urinary orotate levels were measured at each timepoint. The results can be seen in FIG. 12. Urinary orotate was normalized to creatinine, which is represented in the graph on the y-axis throughout the time course and served as a proof-of-concept of functional restoration of OTC activity post-injection.
Spf/ash mice received an IV injection with either PBS or lipid-formulated (as described in Example 1) OTC-mRNA at 1 mg/kg and 3 mg/kg. WT mice were included as an internal control. Urinary orotate levels were measured at 0, 1, 3, 7 and 14 days, and levels were normalized to creatinine (FIG. 16).

Spf/ash mice [3] = experiment: Western Blot of mitochondrial and cytosolic liver fractions of Spf/ash mice; type: in vivo, mouse
Description: Spf/ash mice received an IV injection with either PBS or lipid-formulated (as described in Example 1) OTC-mRNAs at 1 mg/kg and 3 mg/kg. WT mice were used as internal controls. Livers were harvested from the mice and sample fractionation was performed on the liver samples, separating the cytosolic and mitochondrial fractions. OTC levels were measured by Western Blot (WB) using human specific (hOTC) and crossreactive (crOTC) antibodies (FIG. 14). […] (CoxIV) was used as a mitochondrial control. OTC protein expression levels were measured by near-infrared fluorescent imaging systems and normalized to total protein.
Spf/ash mice received an IV injection with either PBS or lipid-formulated OTC-mRNAs at 3 mg/kg. WT mice were used as internal controls. Sample fractionation was performed on liver samples harvested from the mice, separating the cytosolic and mitochondrial fractions. OTC levels were measured by Western Blot using a human specific antibody. OTC protein expression levels were measured by near-infrared fluorescent imaging systems and both fractions, normalized to total protein, were plotted (FIG. 15). […] The 2260 compound includes a modified mitochondrial signaling peptide sequence provided herein.

[4] = kidney, 1 mg/kg IV, read-out: half-life, kidney (converted)
[5] = liver, 1 mg/kg IV, read-out: half-life, liver (converted)
[6] = plasma, 1 mg/kg IV, read-out: half-life, plasma (converted)

Molecule: CCCCCC/C=C\COC(=O)CCCCCN(CCCCCC(=O)OC(CCCCCCC)CCCCCCC)C(=O)SCCN(C)C [Lipid #3]
- tissue clearance assessment ([1]; 1 mg/kg IV): rapid tissue clearance
- detection in brain tissue ([1]; 1 mg/kg IV, either time point post-dose): not detected in brain tissue
- time post-dose through which concentrations persisted, all other tissues ([1]; 1 mg/kg IV, close to LLOQ): 120 h
- time post-dose through which concentrations persisted, liver ([1]; 1 mg/kg IV, close to LLOQ): 168 h
- Tmax ([1]; kidney, 1 mg/kg IV, read-out: Tmax, kidney): 0.033 to 1 h
- half-life [1, 4]: 19 h
- Tmax ([1]; liver, 1 mg/kg IV, read-out: Tmax, liver): 0.033 to 1 h
- half-life [1, 5]: 22 h
- half-life [1, 6]: 0.45 h
- Tmax ([1]; spleen, 1 mg/kg IV, read-out: Tmax, spleen): 1 to 2 h
- half-life ([1]; spleen, 1 mg/kg IV, read-out: half-life, spleen (converted)): 24 h
- ranking of lipid level by tissue [1]: liver>plasma>spleen>kidney>lung>heart>brain
- time post-dose by which lipid no longer detected in plasma [1]: ≤ 4 h

Molecule: CCCCCCCC(CCCCCCC)OC(=O)CCCN(CCCC(=O)OC(CCCCCCC)CCCCCCC)C(=O)SCCCN(C)C [Lipid #7]
- half-life [1, 4]: 234 h
- concentration at 28 days ([1]; kidney, 1 mg/kg IV, read-out: lipid concentration in the kidney): 2.34 ng/mL
- half-life [1, 5]: 84 h
- concentration at 28 days ([1]; liver, 1 mg/kg IV, read-out: lipid concentration in the liver): 17.2 ng/mL
- half-life [1, 6]: 57 h
- concentration at 28 days ([1]; spleen, 1 mg/kg IV, read-out: lipid concentration in the spleen): 18.4 ng/mL
- ranking of lipid level by tissue [1]: liver>spleen>plasma>kidney
- time post-dose by which lipid no longer detected in plasma [1]: ≤ 336 h

B1: Construct 2260: mRNA construct, SEQ ID NO: 251, encodes modified human OTC protein of SEQ ID NO: 4 (nucleic acid)
sense: AGGAUUAUUACAUCAAAACAAAAAGCCGCCACCAUGCUGGUAUUCAACCUGCGCAUCCUGCUGAACAACGCCGCCUUCCGCAACGGCCACAACUUCAUGGUGCGCAACUUCCGCUGCGGCCAGCCCCUGCAGAACCGGGUGCAGCUGAAGGGCCGCGACCUGCUGACCCUGAAGAACUUCACCGGCGAGGAGAUCCGGUACAUGCUGUGGCUGAGCGCCGACCUGAAGUUCCGCAUCAAGCAGAAGGGCGAGUACCUGCCCCUGCUGCAGGGCAAGAGCCUGGGCAUGAUCUUCGAGAAGCGCAGCACCCGCACCCGCCUGAGCACCGAGACAGGCUUCGCCCUGCUGGGCGGCCACCCCUGCUUCCUGACCACCCAGGACAUCCACCUGGGCGUGAACGAGAGCCUGACCGACACCGCCCGCGUGCUGAGCAGCAUGGCCGACGCCGUGCUGGCCCGCGUGUACAAGCAGAGCGACCUGGACACCCUGGCCAAGGAGGCCAGCAUCCCCAUCAUCAACGGCCUGAGCGACCUGUACCACCCCAUCCAGAUCCUGGCCGACUACCUGACCCUGCAGGAGCACUACAGCAGCCUGAAGGGCCUGACCCUGAGCUGGAUCGGCGACGGCAACAACAUCCUGCACAGCAUCAUGAUGAGCGCCGCCAAGUUCGGCAUGCACCUGCAGGCCGCCACCCCCAAGGGCUACGAGCCCGACGCCAGCGUGACCAAGCUGGCCGAGCAGUACGCCAAGGAGAACGGCACCAAGCUGCUGCUGACCAACGACCCCCUGGAGGCCGCCCACGGCGGCAACGUGCUGAUCACCGACACCUGGAUCAGCAUGGGCCAGGAGGAGGAGAAGAAGAAGCGCCUGCAGGCCUUCCAGGGCUACCAGGUGACCAUGAAGACCGCCAAGGUGGCCGCCAGCGACUGGACCUUCCUGCACUGCCUGCCCCGCAAGCCCGAGGAGGUGGACGACGAGGUGUUCUACAGCCCCCGCAGCCUGGUGUUCCCCGAGGCCGAGAACCGCAAGUGGACCAUCAUGGCCGUGAUGGUGAGCCUGCUGACCGACUACAGCCCCCAGCUGCAGAAGCCCAAGUUCUGAGGUCUCUAGUAAUGAGCUGGAGCCUCGGUAGCCGUUCCUCCUGCCCGCUGGGCCUCCCAACGGGCCCUCCUCCCCUCCUUGCACCGGCCCUUCCUGGUCUUUGAAUAAAGUCUGAGUGGGCAGCAUCUAG
- dose dependence of urinary orotate reduction (Spf/ash mice [2]): dose-dependent manner
- duration of reduced urinary orotate levels (Spf/ash mice [2]; measured at 0, 1, 3, 7 and 14 days): up to 14 days
- targeting of expressed OTC to the mitochondria (Spf/ash mice [3]; 1 mg/kg and 3 mg/kg IV, liver fractions): can efficiently target the mitochondria
- human OTC protein level in mitochondrial fraction (Spf/ash mice [3]; 3 mg/kg IV, liver, normalized to total protein): delivers more human OTC than 2016 in the mitochondria
